Assay results from US20160109438A1, “PROTEASE-RESPONSIVE PEPTIDE BIOSENSORS AND METHODS FOR ANALYTE DETECTION” (AGENCY FOR SCIENCE, TECHNOLOGY AND RESEARCH, priority 2013, published 2016).

Tests used:
Mdm2 = target: T1, Mdm2 (Homo sapiens, UniProt Q00987); test: Mdm2-enterokinase sensor assay; type: biochemical; settings: for substrate turnover (time course): sensor with enterokinase and mdm2, compared with DMSO only
T1 construct: derived from N-terminal domain (amino acids 18-125) of wild type Mdm2 protein; 10x His; made in house; host or cells: E. coli
Protocol: Nutlin was used as the positive control and a mutant p53 peptide, which cannot bind to Mdm2 was used as the negative control. The reaction was monitored using absorbance measurements at OD492 on a Perkin Elmer plate reader every 2 min. The signal was calculated from reading 5 minus reading 3. This assay was repeated three times and the average gradient value with standard error was reported.
The screening was divided into two steps. In the first step, the screening was carried out at the fixed compound concentration of […]. In the second step, a dose-response experiment of different hits found in the first step was conducted. […] The OD492 value of read number 3 was subtracted from that of read number 5 (OD492 readings were taken every 2 min) which was designated as signal. […] Fold change=Gradient of Hits (Reading 5−Reading 3)/Gradient of control (Reading 5−Reading 3)

Mdm2 N-terminal domain = Mdm2 N-terminal domain (Homo sapiens, UniProt Q00987); test: Protease exclusion sensor using fluorescence labeled internally quenched peptide (P1); settings: for response of the peptide sensor (rate of fluorescence increase): various concentrations, with enterokinase and Mdm2
HA antibody / HA epitope = test: HA-enterokinase sensor assay; type: biochemical; settings: 0 nM, 4 nM, 40 nM, 400 nM and 4000 nM; enterokinase and HA antibody present
HA antibody = test: Thrombin-HA protease exclusion sensor; type: biochemical
Description: An HA-antibody binds to the HA epitope ([…]; SEQ ID NO:3). The Binding of an anti-HA antibody to its epitope would disallow protease, access to its recognition site due to steric obstruction by the higher affinity HA antibody. Addition of excess HA peptide should sequester the HA antibody, leading to renewed protease access to its recognition site, bringing about increased enzyme activity in response to the HA peptide. […] Starting from the left, the rate of substrate turnover is shown after 0 nM, 4 nM, 40 nM, 400 nM and 4000 nM addition of free HA peptide to the tested sensor.

[1] = target: HA antibody (clone not named, FIG. 3B and FIG. 8B); test: cell-based or functional assay
[2] = target: T2, Mdm2 N-terminal domain (amino acids 18-125) of wild type Mdm2 protein engineered with 10x His tag (UniProt Q00987 18-125); test: Mdm2-enterokinase sensor assay, substrate turnover at OD492
T2 construct: range 18-125; expressed in E. coli; also called Mdm2 N-terminus; Mdm2 N terminus
T2 sequence (Q00987 18-125 limits assumed, change not shown): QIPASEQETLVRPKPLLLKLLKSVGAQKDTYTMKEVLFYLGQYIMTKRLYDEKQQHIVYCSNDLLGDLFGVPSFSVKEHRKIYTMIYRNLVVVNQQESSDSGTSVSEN

Chain of Mdm2 N-terminal domain (Q00987 18-125): as the sequence (Q00987 18-125 limits assumed, change not shown) above
T1 sequence (Q00987 18-125, species assumed): as the sequence (Q00987 18-125 limits assumed, change not shown) above

Molecule: O=c1[nH]cc(F)c(=O)[nH]1 [5 FU]
- substrate turnover (time course) (Mdm2): does not lead to increased turnover

Molecule: ETASDLAKLAP (mutated p53 peptide) [mutant p53 peptide]
- response of the peptide sensor (rate of fluorescence increase) (Mdm2 N-terminal domain): not
- substrate turnover (time course) (Mdm2): does not lead to increased turnover

Molecule: HA peptide: free peptide of the influenza hemagglutinin (HA) epitope, sequesters the HA antibody
- substrate turnover after addition of free HA peptide (HA antibody / HA epitope): concentration-dependent increase of substrate turnover
- rate of substrate turnover (HA antibody; thrombin and HA antibody, varying amounts of free peptide): increases with increasing amount
- amount of peptide giving the highest substrate turnover (HA antibody; thrombin-HA protease exclusion sensor): 400 nM

Molecule: Nutlin
- detectable concentrations (Mdm2 N-terminal domain; signal to noise ratio ~5-6x): low micromolar
- response of the peptide sensor (rate of fluorescence increase) (Mdm2 N-terminal domain): strong response
- substrate turnover (time course) (Mdm2): substrate turnover increases substantially
- rate of turnover of substrate in response to various amounts (Mdm2; various amounts of competitor): increased turnover signal

Molecule: free HA peptide
- HA peptide concentration with the highest substrate turnover (thrombin-HA protease exclusion sensor) [1]: 400 nM

B1: mutant p53 peptide with critical residues mutated to alanine (ETASDLAKLAP) (peptide)
peptide: ETASDLAKLAP
notes: Synthetic negative control peptide; also called peptide C
- binding result [2]: no binding
